pIC50: −log10 of the molar value. Where two headings read alike, the source gives them in different places.

The test relates to PMA-differentiated THP-1 cells. Put plainly: IL-1β production in PMA-differentiated THP-1 cells stimulated with gramicidin (hTHP-1 assay containing 2% fetal bovine serum; Procedures 1 and 2). Format: cell-based, human. The note with it: 2% fetal bovine serum. The method, boiled down: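 Human monocytic THP-1 cells, matured overnight with PMA at 20 ng/ml, are seeded in low-serum (2% FBS) RPMI. Test compounds, at final concentrations from 100 down to 0.0017 μM, precede gramicidin (5 μM, 2 h) by one hour. Released IL-1β is then determined by HTRF.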

Where [1] appears, read: Homo sapiens, THP-1, Table B2, class symbols, read-out: hTHP-1 IC50.
Where [2] appears, read: Homo sapiens, THP-1, Table B3, hTHP-1 assay, class symbols, read-out: IC50.
[3] abbreviates: Homo sapiens, THP-1, Table B1, class symbols, read-out: Average IC50 of compounds in hTHP-1 assay: hTHP-1 IC50.
The mark [4] stands for this setting: Table B2, class symbols, read-out: hTHP-1 IC50.
[5] abbreviates: Table B1, class symbols, read-out: Average IC50 of compounds in hTHP-1 assay: hTHP-1 IC50.
The mark [6] stands for this setting: Homo sapiens, THP-1, Table B2, numeric bounds, read-out: hTHP-1 IC50.

Turning to `C[C@@H]1CCc2c1nc1c(c2NC(=O)N=S(N)(=O)c2cc(F)c(C(C)(C)O)s2)CCC1` (stereo partly drawn) [Compound 616, 4-Fluoro-5-(2-hydroxypropan-2-yl)-N′-(((R)-3-methyl-1,2,3,5,6,7-hexahydrodicyclopenta[b,e]pyridin-8-yl)carbamoyl)thiophene-2-sulfonimidamide], the pIC50 under setting [1] is 6.70 to 7.40. Regarding `CC(C)(O)c1ccnc(S(N)(=O)=NC(=O)Nc2c3c(nc4c2CCC4(C)C)CCC3)c1` (stereo not drawn) [Compound 620, N′-((3,3-dimethyl-1,2,3,5,6,7-hexahydrodicyclopenta[b,e]pyridin-8-yl)carbamoyl)-4-(2-hydroxypropan-2-yl)pyridine-2-sulfonimidamide], under setting [1], the pIC50 is 4.52 to 5.30. Regarding `CCn1cc(F)c(S(N)(=O)=NC(=O)Nc2c(C)c(CC(F)(F)F)nc3c2CCC3)n1` (stereo not drawn) [Example 619, 1-Ethyl-4-fluoro-N′-((3-methyl-2-(2,2,2-trifluoroethyl)-6,7-dihydro-5H-cyclopenta[b]pyridin-4-yl)carbamoyl)-1H-pyrazole-3-sulfonimidamide], the pIC50 under setting [2] is 5.30 to 6.00. For `Cc1nc(C(C)(C)O)ccc1S(N)(=O)=NC(=O)Nc1c2c(nc3c1CCC3)CCC2` (stereo not drawn) [Compound 157, N′-((1,2,3,5,6,7-hexahydrodicyclopenta[b,e]pyridin-8-yl)carbamoyl)-6-(2-hydroxypropan-2-yl)-2-methylpyridine-3-sulfonimidamide], the pIC50 under setting [3] was 4.52 to 5.30.

In the case of `CC1(C)Cc2nc3c(c(NC(=O)N=S(N)(=O)c4cnc(C(C)(C)O)s4)c2C1)CCC3` (stereo not drawn) [Compound 147, N′-((2,2-dimethyl-1,2,3,5,6,7-hexahydrodicyclopenta[b,e]pyridin-8-yl)carbamoyl)-2-(2-hydroxypropan-2-yl)thiazole-5-sulfonimidamide], the pIC50 under setting [3] is 4.52 to 5.30. With `C[C@@H]1CCc2c1nc1c(c2NC(=O)N=S(N)(=O)c2cc(F)c(C(C)(C)O)s2)CCC1` (single isomer, unassigned) [Compound 616b, (S) or (R)-4-Fluoro-5-(2-hydroxypropan-2-yl)-N′-(((R)-3-methyl-1,2,3,5,6,7-hexahydrodicyclopenta [b,e]pyridin-8-yl)carbamoyl) thiophene-2-sulfonimidamide], under setting [4], the pIC50 is 4.52 to 5.30. Regarding `Cc1c(C2(F)CC2)nc2c(c1NC(=O)N=S(N)(=O)c1cc(C(C)(C)O)cs1)CCC2` (single isomer, unassigned) [Example 683, (R) or (S)-N′-((2-(1-fluorocyclopropyl)-3-methyl-6,7-dihydro-5H-cyclopenta[b]pyridin-4-yl)carbamoyl)-4-(2-hydroxypropan-2-yl)thiophene-2-sulfonimidamide], the pIC50 under setting [2] was 5.30 to 6.00. Same read-out and setting: the value for `CC(C)(O)c1cccc(S(N)(=O)=NC(=O)Nc2c3c(nc4c2CCC4(C)C)CCC3)n1` (stereo not drawn) [Example 630, N′-((3,3-dimethyl-1,2,3,5,6,7-hexahydrodicyclopenta[b,e]pyridin-8-yl)carbamoyl)-6-(2-hydroxypropan-2-yl)pyridine-2-sulfonimidamide] was 4.52 to 5.30. With `CC1CCc2c1nc1c(c2NC(=O)N=S(N)(=O)c2cc(C(C)(C)O)cs2)CCC1` (single isomer, unassigned) [Compound 141ba, (S,S) or (S,R)-4-(2-hydroxypropan-2-yl)-N′-((3-methyl-1,2,3,5,6,7-hexahy-drodicyclopenta[b,e]pyridin-8-yl)carbamoyl)thiophene-2-sulfonimidamide], under setting [5], the pIC50 was 5.30 to 6.00. As to `CC(C)(O)c1csc(S(N)(=O)=NC(=O)Nc2c3c(nc4c2CCC42CC2)CCC3)c1` (single isomer, unassigned) [Compound 114b, (S) or (R)-4-(2-hydroxy-propan-2-yl)-N′-((1′,5′,6′,7′-tetrahydro-2′H-spiro[cyclopropane-1,3′-dicyclopenta[b,e]pyridin]-8′-yl)carbamoyl)thiophene-2-sulfonimidamide], the pIC50 under setting [5] is 5.30 to 6.00. For the molecule `CC(O)c1nc(C(C)(C)O)sc1S(=N)(=O)NC(=O)Nc1c2c(nc3c1CCC3)CCC2` (single isomer, unassigned) [Compound 643a, (R, R/S) or (S, R/S)-N-((1,2,3,5,6,7-hexahydrodicyclopenta [b,e]pyridin-8-yl)carbamoyl)-4-(1-hydroxyethyl)-2-(2-hydroxypropan-2-yl) thiazole-5-sulfonimidamide], the pIC50 under setting [1] was 4.52 to 5.30. `CC(C)(O)c1cnc(S(N)(=O)=NC(=O)Nc2c3c(nc4c2CCC42CC2)CCC3)s1` (single isomer, unassigned) [Compound 683a, (R) or (S)-5-(2-Hydroxypropan-2-yl)-N′-((1′,5′,6′,7′-tetrahydro-2′H-spiro[cyclopropane-1,3′-dicyclopenta[b,e]pyridin]-8′-yl)carbamoyl) thiazole-2-sulfonimidamide]: the pIC50 under setting [4] is 6.00 to 6.70. As to `CC(C)(O)c1sc(S(N)(=O)=NC(=O)Nc2c3c(nc4c2CCC4)CCC3)cc1Cl` (single isomer, unassigned) [Compound 688a, (R) or (S)-4-Chloro-N′-((1,2,3,5,6,7-hexahydrodicyclopenta [b,e]pyridin-8-yl)carbamoyl)-5-(2-hydroxypropan-2-yl)thiophene-2-sulfonimidamide], the pIC50 under setting [4] is 6.00 to 6.70. Consider `NS(=O)(=NC(=O)Nc1c2c(nc3c1CCC3)CCC2)c1ccn(CC(F)(F)F)n1` (stereo not drawn) [Compound 685, N′-((1,2,3,5,6,7-hexahydrodicyclopenta[b,e]pyridin-8-yl)carbamoyl)-1-(2,2,2-trifluoroethyl)-1H-pyrazole-3-sulfonimidamide], for which the pIC50 under setting [1] is 5.30 to 6.00. `CC1CCc2c1nc1c(c2NC(=O)N=S(N)(=O)c2sc(C(C)(C)O)cc2F)CCC1` (single isomer, unassigned) [Compound 103ab, (S,S) or (S,R)-3-fluoro-5-(2-hydroxypropan-2-yl)-N′-((3-methyl-1,2,3,5,6,7-hexahydrodicyclo-penta[b,e]pyridin-8-yl)carbamoyl)thiophene-2-sulfonimidamide]: the pIC50 under setting [5] was 4.52 to 5.30. For the molecule `Cc1c(C(F)(F)F)nc2c(c1NC(=O)N=S(N)(=O)c1ccn(C(F)F)n1)CCC2` (stereo not drawn) [Compound 621, 1-(Difluoromethyl)-N′-((3-methyl-2-(trifluoromethyl)-6,7-dihydro-5H-cyclopenta[b]pyridin-4-yl)carbamoyl)-1H-pyrazole-3-sulfonimidamide], the pIC50 under setting [1] was 5.30 to 6.00.

Turning to `CC(C)(O)c1ncc(S(N)(=O)=NC(=O)Nc2c3c(nc4c2CCC4C(=O)O)CCC3)s1` (stereo not drawn) [Compound 703, 8-(3-(Amino(2-(2-hydroxypropan-2-yl)thiazol-5-yl)(oxo)-λ^6-sulfanylidene)ureido)-1,2,3,5,6,7-hexahydrodicyclopenta[b,e] pyridine-3-carboxylic acid], the pIC50 under setting [1] was 4.52 to 5.30. With `CCn1cc(F)c(S(N)(=O)=NC(=O)Nc2c3c(nc4c2CCC42CC2)CCC3)n1` (single isomer, unassigned) [Example 671, (R) or (S)-1-ethyl-4-fluoro-N′-((1′,5′,6′,7′-tetrahydro-2′H-spiro[cyclopropane-1,3′-dicyclopenta[b,e]pyridin]-8′-yl)carbamoyl)-1H-pyrazole-3-sulfonimidamide], the pIC50 (Table B3, hTHP-1 assay, class symbols, read-out: IC50) was 7.40 to 8.10. On to `Cc1c(-c2ccccc2)nc2c(c1NC(=O)N=S(N)(=O)c1cnc(C(C)(C)O)s1)CCC2` (stereo not drawn) [Compound 143, 2-(2-hydroxypropan-2-yl)-N′-((3-methyl-2-phenyl-6,7-dihydro-5H-cyclopenta[b]pyridin-4-yl)carbamoyl)thiazole-5-sulfonimidamide], for which, where the note is “Homo sapiens, THP-1, Table B1, numeric bounds, read-out: Average IC50 of compounds in hTHP-1 assay: hTHP-1 IC50”, the pIC50 is below 4.52. Regarding `CCc1nc2c(c(NC(=O)N=S(N)(=O)c3cnc(C(C)(C)O)s3)c1C1CC1)CCC2` (stereo not drawn) [Compound 630, N′-((3-cyclopropyl-2-ethyl-6,7-dihydro-5H-cyclopenta[b]pyridin-4-yl)carbamoyl)-2-(2-hydroxypropan-2-yl)thiazole-5-sulfonimidamide], the pIC50 under setting [1] is 6.00 to 6.70. For `CC(C)(O)c1csc(S(N)(=O)=NC(=O)Nc2c3c(nc(C4CC4)c2C2CC2)CCC3)c1` (single isomer, unassigned) [Compound 670a, (S) or (R)-N′-((2,3-dicyclopropyl-6,7-dihydro-5H-cyclopenta[b]pyridin-4-yl)carbamoyl)-4-(2-hydroxypropan-2-yl)thiophene-2-sulfonimidamide], under setting [4], the pIC50 is 4.52 to 5.30. Regarding `CC(C)(O)c1ccnc(S(N)(=O)=NC(=O)Nc2c3c(nc4c2CCC4(C)C)CCC3)c1` (single isomer, unassigned) [Compound 620a, (S) or (R)-N′-((3,3-dimethyl-1,2,3,5,6,7-hexahydrodicyclopenta [b,e]pyridin-8-yl)carbamoyl)-4-(2-hydroxypropan-2-yl)pyridine-2-sulfonimidamide], the pIC50 under setting [6] is below 4.52. Turning to `CC(C)(O)c1cccc(S(N)(=O)=NC(=O)Nc2c3c(nc4c2CCC4)CCC3)c1` (single isomer, unassigned) [Compound 625a, (S) or (R)-N′-((1,2,3,5,6,7-hexahydrodicyclopenta [b,e]pyridin-8-yl)carbamoyl)-3-(2-hydroxypropan-2-yl)benzene-sulfonimidamide], the pIC50 under setting [6] is below 4.52. Take `CC(C)(O)c1ncc(S(N)(=O)=NC(=O)Nc2c3c(nc4c2CCC4)CCC3)s1` (single isomer, unassigned) [Compound 128b, (S) or (R)-N′-((1,2,3,5,6,7-hexahydrodicyclo-penta[b,e]pyridin-8-yl)carbamoyl)-2-(2-hydroxypropan-2-yl)thiazole-5-sulfonimidamide]: under setting [5], the pIC50 is 4.52 to 5.30.

The term pIC50 denotes −log10 of the IC50, conventionally taken in molar units.
